Test results reported in PMC6576746, “Rational discovery of dual-indication multi-target PDE/Kinase inhibitor for precision anti-cancer therapy using structural systems pharmacology” (PLoS Computational Biology, 2019).

Assays:
Test in all cases: cells
Design in all cases: species or system panel of human cancer cell lines; Eurofins OncoPanel proliferation; nuclei count by high-content fluorescence imaging, 10-point dose response
BPH1 = settings: Homo sapiens, BPH-1, 72 h, cell count, 3 days
Summary of the method: (§1)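 Cells in RPMI 1640/10% FBS or special medium received compound the day after seeding, with a time-zero plate; 3-day incubation at 37°C, 5% CO2. Nuclei imaged by fluorescence microscopy; 10 half-log doses from 100 μM, 0.1% DMSO. EC50, IC50, GI50 and activity area (0–10) from curve fits.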

BV-173 = settings: Homo sapiens, BV-173, 72 h, cell count, 3 days
Summary of the method: as §1

C-33A = settings: Homo sapiens, C-33-A, 72 h, cell count, 3 days
Summary of the method: as §1

CA46 = settings: Homo sapiens, CA46, 72 h, cell count, 3 days
Summary of the method: as §1

CHP-212 = settings: Homo sapiens, CHP-212, 72 h, cell count, 3 days
Summary of the method: as §1

Daudi = settings: Homo sapiens, Daudi, 72 h, cell count, 3 days
Summary of the method: as §1

HepG2 = settings: Homo sapiens, HepG2, 72 h, cell count, 3 days
Summary of the method: as §1

Hs 445 = settings: Hs 445, 72 h, cell count, 3 days
Summary of the method: as §1

Hs 688(A).T = settings: 72 h, cell count, 3 days
Summary of the method: as §1

Hs 695T = settings: Homo sapiens, Hs 695T, 72 h, cell count, 3 days
Summary of the method: as §1

SK-PN-DW = settings: 72 h, cell count, 3 days
Summary of the method: as §1

SKO-007 = settings: SKO-007, 72 h, cell count, 3 days
Summary of the method: as §1

SW872 = settings: Homo sapiens, SW872, 72 h, cell count, 3 days
Summary of the method: as §1

Thp1 = settings: Homo sapiens, THP-1, 72 h, cell count, 3 days
Summary of the method: as §1

[1] = 50% of maximum possible response

`C[C@@H]1CC(=O)NN=C1c1ccc(NN=C(C#N)C#N)cc1` [levosimendan] gave an IC50 (BPH1; [1]) of 8.33 µM, a GI50 (BPH1; corrected for time zero) of 7.33 µM and an EC50 (BPH1; curve inflection point) of 7.05 µM. For the same molecule, the IC50 (BV-173; [1]) was 12 µM, the GI50 (BV-173; corrected for time zero) was 10.1 µM and the EC50 (BV-173; curve inflection point) was 12 µM. For the same molecule, the IC50 (C-33A; [1]) was 14.5 µM, the GI50 (C-33A; corrected for time zero) was 10.7 µM and the EC50 (C-33A; curve inflection point) was 14.5 µM. The IC50 (CA46; [1]) was 13.2 µM, the GI50 (CA46; corrected for time zero) was 11 µM and the EC50 (CA46; curve inflection point) was 13.2 µM. It also gave an IC50 (CHP-212; [1]) of 84.9 µM, a GI50 (CHP-212; corrected for time zero) of 49.1 µM and an EC50 (CHP-212; curve inflection point) of 84.9 µM. It also gave an IC50 (Daudi; [1]) of 16.3 µM, a GI50 (Daudi; corrected for time zero) of 14.2 µM and an EC50 (Daudi; curve inflection point) of 15.3 µM. The IC50 (HepG2; [1]) was 42.1 µM, the GI50 (HepG2; corrected for time zero) was 36.7 µM and the EC50 (HepG2; curve inflection point) was 42.1 µM. It also gave an IC50 (Hs 445; [1]) of 30.6 µM, a GI50 (Hs 445; corrected for time zero) of 21.8 µM and an EC50 (Hs 445; curve inflection point) of 26.3 µM. The IC50 (Hs 688(A).T; [1]) was greater than 100 µM, the GI50 (Hs 688(A).T; corrected for time zero) was 10.5 µM and the EC50 (Hs 688(A).T; curve inflection point) was 16 µM. For the same molecule, the IC50 (Hs 695T; [1]) was 44.9 µM, the GI50 (Hs 695T; corrected for time zero) was 15.2 µM and the EC50 (Hs 695T; curve inflection point) was 26.7 µM. It also gave an IC50 (SK-PN-DW; [1]) of 57.4 µM, a GI50 (SK-PN-DW; corrected for time zero) of 43.3 µM and an EC50 (SK-PN-DW; curve inflection point) of 57.4 µM. The IC50 (SKO-007; [1]) was 42 µM, the GI50 (SKO-007; corrected for time zero) was 22.3 µM and the EC50 (SKO-007; curve inflection point) was 42 µM. For the same molecule, the IC50 (SW872; [1]) was 35.3 µM, the GI50 (SW872; corrected for time zero) was 28.9 µM and the EC50 (SW872; curve inflection point) was 35.3 µM. The IC50 (Thp1; [1]) was 35.5 µM, the GI50 (Thp1; corrected for time zero) was 23.1 µM and the EC50 (Thp1; curve inflection point) was 35.5 µM.
